Measurements as given in patent US20210170033A1, “NOVEL CONJUGATES OF A PHARMACEUTICAL AGENT AND A MOIETY CAPABLE OF BINDING TO A GLUCOSE SENSING PROTEIN” (SANOFI, priority 2017, published 2021).

System: A2780 cells
Assay: Deoxy-glucose uptake assay in A2780 cells (14C 2-deoxy-D-glucose transport)
Assay type: cell-based
Details: Homo sapiens, 20 min; inhibition of 14C 2-deoxy-D-glucose transport into A2780 cells; 20 min compound incubation; read-out: IC50
Description: 1. Deoxy-Glucose Uptake Assay in A2780 Cells:
For measurement of ^14C 2-deoxy-D-glucose transport into A2780 cells, cells were seeded in 96-well plates (Cytostar-T Plates Perkin Elmer, 70,000 cells/180 μl/well) in medium complete (RPMI1640+Glutamax (Life technologies #61870)) and grown for 48 hours. After 48 h, cells were washed once with 180 μL KRB (Krebs Ringer Bicarbonate) buffer, and stimulated in a dose dependent manner by adding 10 μL of test compound dilution 0-1.1 mM (11 times higher concentration than final) or 10 μL of 1.1 mM Cytochalasin B solution as negative control, to 90 μL KRB buffer and incubated for 20 minutes. After compound stimulation, the transport of ^14C 2-deoxy-D-glucose was started by adding of 50 μL 2-^14C[U] 2-deoxy-D-glucose solution (109.1 μM 2-deoxy-D-glucose cold and 33 μM 2-^14C[U] 2-deoxy-D-glucose 0.1 μCi/well) for 20 minutes. Transport was stopped by adding 50 μL/well 96 μM Cytochalasin B solution. Plates were measured in a 96-well Wallac Microbeta device. The cpm (counts per minute) values were used to determine the % inhibition values for the test compounds within each experiment. In a first step, the mean background value generated by Cytochalasin B (a potent glucose transporter inhibitor) treated cells, was subtracted from the mean values of the treated cells. All mean values were obtained from triplicates. For %-Inhibition results, the mean value of the untreated cells (just KRB) was set as 100%. All other mean values were calculated to this relation. IC50 were obtained by regression analysis of dose response curve with 7 or 14 concentrations, respectively, for each compound.

Row | Structure (SMILES) | IC50 [µM]
1 | C#CCCC(=O)Nc1cccc(COc2c(Cl)cc(C(=O)O[C@@H]3[C@@H](O)[C@@H](OC)O[C@H](CO)[C@H]3O)c(C)c2Cl)c1 [Example 205] | 27.5
2 | Cc1ccc(OCc2ccccc2)cc1C(=O)OC[C@H]1OC(O)[C@H](O)[C@@H](O)[C@H]1O (stereo partly shown) [Example 102] | 13.7
3 | C#CCCC(=O)Nc1cccc(COc2c(Cl)cc(C(=O)O[C@@H]3C(O)[C@H](O)[C@@H](CO)O[C@@H]3OC)cc2OC)c1 (stereo partly shown) [Example 78] | 20.1
4 | CO[C@H]1O[C@H](CO)[C@@H](O)[C@H](O)[C@H]1OC(=O)c1cc(Cl)c(OCc2cccc(C(=O)OC(C)(C)C)c2)c(Cl)c1C [Example 269] | 13.4
5 | COC(=O)[C@H](CCCCNC(=O)CCCC(=O)NCc1cccc(COc2c(Cl)cc(C(=O)N[C@H]3[C@@H](OC)O[C@H](CO)[C@@H](O)[C@@H]3O)c(C)c2Cl)c1)NC(=O)OC(C)(C)C [Example 460] | 84.6
6 | COc1cc(OCc2ccccc2)c(Cl)cc1C(=O)O[C@@H]1[C@@H](O)[C@@H](OC)O[C@H](CO)[C@H]1O [Example 350] | 18
7 | COC(=O)/C=C/c1ccc(COc2c(Cl)cc(C(=O)O[C@H]3[C@@H](OC)O[C@H](CO)[C@@H](O)[C@@H]3O)c(C)c2Cl)cc1 [Example 317] | 14.7
8 | COc1ncc(COc2c(Cl)cc(C(=O)N[C@H]3[C@@H](OC)O[C@H](CO)[C@@H](O)[C@@H]3O)c(C)c2Cl)cc1NCC(=O)OC(C)(C)C [Example 303] | 0.2
9 | CO[C@@H]1O[C@H](CO)[C@@H](O)[C@H](O)[C@H]1NC(=O)c1cc(Cl)c(OCc2ccccc2)c(Cl)c1C [Example 337] | 36.4
10 | COc1cc(OCc2cccc(CNC(=O)CCC(=O)OC(C)(C)C)c2)c(Cl)cc1C(=O)O[C@@H]1[C@@H](O)[C@@H](OC)O[C@H](CO)[C@H]1O [Example 363] | 27.4
11 | COc1cc(OCc2cnc(-c3ccc(Cl)cc3)o2)c(Cl)cc1C(=O)O[C@H]1[C@@H](OC)O[C@H](CO)[C@@H](O)[C@@H]1O [Example 475] | < 0.1
12 | COc1cc(OCc2ccccc2)ccc1C(=O)N[C@H]1[C@@H](OC)O[C@H](CO)[C@@H](O)[C@@H]1O [Example 358] | 91.4
13 | COc1cc(OCc2cccc(CNC(=O)OC(C)(C)C)c2)c(Cl)cc1C(=O)N[C@H]1[C@@H](OC)O[C@H](CO)[C@@H](O)[C@@H]1O [Example 357] | 0.9
14 | CO[C@H]1O[C@H](CO)[C@@H](O)[C@H](O)[C@H]1OC(=O)c1cc(Cl)c(OCc2cccc(CNC(=O)[C@@H](N)CC(C)C)c2)c(Cl)c1C [Example 285] | 23.2
15 | COc1cccc(COc2cc(OC)c(C(=O)O[C@H]3[C@@H](OC)O[C@H](CO)[C@@H](O)[C@@H]3O)cc2Cl)n1 [Example 480] | 4.6
16 | CCn1c(COc2c(Cl)cc(C(=O)O[C@H]3[C@@H](OC)O[C@H](CO)[C@@H](O)[C@@H]3O)cc2OC)nc2ccc(Br)cc21 [Example 213] | 1.5
17 | COC(=O)COc1ccc(COc2cc(OC)c(C(=O)N[C@H]3[C@@H](OC)O[C@H](CO)[C@@H](O)[C@@H]3O)cc2Cl)cc1 (relative stereo) [Example 386] | 5.3
18 | CCOC(=O)c1cccc(COc2c(Cl)cc(C(=O)O[C@H]3[C@@H](OC)O[C@H](CO)[C@@H](O)[C@@H]3O)c(C)c2Cl)n1 [Example 271] | 4.2
19 | COc1cc(C(=O)O[C@H]2[C@@H](O)[C@@H](CO)O[C@H](OC)[C@@H]2O)cc(Cl)c1OCc1nc2ccccc2n1C(C)C [Example 127] | 32.7
20 | COc1c(C(=O)N[C@H]2[C@H](OC)O[C@H](CO)[C@@H](O)[C@@H]2O)cc(Cl)c(OCc2ccccc2)c1Cl [Example 332] | 31.3

Row | Structure (SMILES) | IC50 [µM]
21 | COC(=O)[C@H](CCCCNC(=O)CCCC(=O)NCc1cccc(COc2cc(OC)c(C(=O)O[C@H]3[C@@H](OC)O[C@H](CO)[C@@H](O)[C@@H]3O)cc2Cl)c1)NC(=O)OC(C)(C)C [Example 391] | 34.3
22 | COc1c(C(=O)N[C@H]2[C@H](OC)O[C@H](CO)[C@@H](O)[C@@H]2O)cc(Cl)c(OCc2cccc(CNC(=O)OC(C)(C)C)c2)c1Cl [Example 447] | 30.6
23 | CO[C@H]1O[C@H](CO)[C@@H](O)[C@H](O)[C@H]1NC(=O)c1cc(Cl)c(OCc2cccc(OCC(=O)OC(C)(C)C)c2)c(Cl)c1C [Example 307] | 24
24 | COc1cc(OCc2nc3ccccc3n2Cc2ccccc2)c(Cl)cc1C(=O)O[C@H]1[C@@H](OC)O[C@H](CO)[C@@H](O)[C@@H]1O [Example 481] | 0.6
25 | CO[C@H]1O[C@H](CO)[C@@H](O)[C@H](O)[C@H]1OC(=O)c1cc(Cl)c(OCCc2ccc(C)cc2)c(Cl)c1C [Example 243] | 27.4
26 | CO[C@H]1O[C@H](CO)[C@@H](O)[C@H](O)[C@H]1NC(=O)c1cc(Cl)c(OCc2cccc(CNC(=O)CCC(=O)OC(C)(C)C)c2)c(Cl)c1C [Example 449] | 18.5
27 | COc1cc(C(=O)OC[C@H]2OC(O)[C@H](O)[C@@H](O)[C@@H]2O)cc(Cl)c1OCCc1ccccc1 (stereo partly shown) [Example 56] | 43.2
28 | COC(=O)/C=C/c1ccc(COc2c(Cl)cc(C(=O)O[C@H]3[C@@H](OC)O[C@H](CO)[C@@H](O)[C@@H]3O)cc2OC)cc1 [Example 299] | 45.8
29 | CO[C@H]1O[C@H](CO)[C@@H](O)[C@H](O)[C@H]1NC(=O)c1cc(Cl)c(OCc2cccc(CNC(=O)CCCC(=O)OC(C)(C)C)c2)c(Cl)c1C [Example 450] | 25.8
30 | COc1cc(C(=O)N[C@H]2[C@H](OC)O[C@H](CO)[C@@H](O)[C@@H]2O)cc(Cl)c1OCCc1ccccc1 [Example 333] | 29.1
31 | COc1cccc(CCOc2c(Cl)cc(C(=O)O[C@H]3[C@@H](OC)O[C@H](CO)[C@@H](O)[C@@H]3O)c(C)c2Cl)c1 [Example 241] | 24.5
32 | CO[C@@H]1O[C@H](CO)[C@@H](O)[C@H](O)[C@H]1NC(=O)c1cc(Cl)cc(OCc2ccccc2)c1 [Example 334] | 30.6
33 | COC(=O)[C@H](CCCCNC(=O)CCCCCNC(=O)CCCCCCC(=O)NCc1cccc(COc2cc(OC)c(C(=O)N[C@H]3[C@@H](OC)O[C@H](CO)[C@@H](O)[C@@H]3O)cc2Cl)c1)NC(=O)OC(C)(C)C [Example 468] | 27.8
34 | COC(=O)c1cccn2cc(COc3cc(OC)c(C(=O)N[C@H]4[C@@H](OC)O[C@H](CO)[C@@H](O)[C@@H]4O)cc3Cl)nc12 [Example 396] | 17.3
35 | CO[C@H]1O[C@H](CO)[C@@H](O)[C@H](O)[C@H]1NC(=O)c1cc(Cl)c(OCc2cccc(NC(=O)CCCCCCC(=O)OC(C)(C)C)c2)c(Cl)c1C [Example 454] | 25.6
36 | COc1ncc(COc2c(Cl)cc(C(=O)O[C@H]3[C@@H](OC)O[C@H](CO)[C@@H](O)[C@@H]3O)c(C)c2Cl)cc1Cl [Example 215] | 1.1
37 | CCOC(=O)c1nnsc1COc1c(Cl)cc(C(=O)O[C@H]2[C@@H](OC)O[C@H](CO)[C@@H](O)[C@@H]2O)c(C)c1Cl [Example 282] | 0.3
38 | CO[C@H]1O[C@H](CO)[C@@H](O)[C@H](O)[C@H]1NC(=O)c1cc(Cl)c(OCc2ccc3c(cnn3C)c2)c(Cl)c1C [Example 240] | 6
39 | COc1c(Cl)c(OCc2cccc(CNC(=O)OC(C)(C)C)c2)c(Cl)c(C)c1C(=O)N[C@H]1[C@@H](OC)O[C@H](CO)[C@@H](O)[C@@H]1O [Example 181] | 17.2
40 | COC(=O)[C@H](CCC(=O)NCc1cccc(COc2cc(OC)c(C(=O)O[C@H]3[C@@H](OC)O[C@H](CO)[C@@H](O)[C@@H]3O)cc2Cl)c1)NC(=O)OC(C)(C)C [Example 369] | 11.2
